Key:
[1] = target: T1, lipoxygenase from rabbit reticulocytes (Oryctolagus cuniculus, UniProt P12530); assay: inhibition of activity of lipoxygenase from rabbit reticulocytes; format: biochemical
T1 construct: Lipoxygenase from rabbit reticulocytes was obtained in electrophoretically and immunologically pure form; from tissue; host or cells: rabbit reticulocytes
T1 sequence (P12530 1-663): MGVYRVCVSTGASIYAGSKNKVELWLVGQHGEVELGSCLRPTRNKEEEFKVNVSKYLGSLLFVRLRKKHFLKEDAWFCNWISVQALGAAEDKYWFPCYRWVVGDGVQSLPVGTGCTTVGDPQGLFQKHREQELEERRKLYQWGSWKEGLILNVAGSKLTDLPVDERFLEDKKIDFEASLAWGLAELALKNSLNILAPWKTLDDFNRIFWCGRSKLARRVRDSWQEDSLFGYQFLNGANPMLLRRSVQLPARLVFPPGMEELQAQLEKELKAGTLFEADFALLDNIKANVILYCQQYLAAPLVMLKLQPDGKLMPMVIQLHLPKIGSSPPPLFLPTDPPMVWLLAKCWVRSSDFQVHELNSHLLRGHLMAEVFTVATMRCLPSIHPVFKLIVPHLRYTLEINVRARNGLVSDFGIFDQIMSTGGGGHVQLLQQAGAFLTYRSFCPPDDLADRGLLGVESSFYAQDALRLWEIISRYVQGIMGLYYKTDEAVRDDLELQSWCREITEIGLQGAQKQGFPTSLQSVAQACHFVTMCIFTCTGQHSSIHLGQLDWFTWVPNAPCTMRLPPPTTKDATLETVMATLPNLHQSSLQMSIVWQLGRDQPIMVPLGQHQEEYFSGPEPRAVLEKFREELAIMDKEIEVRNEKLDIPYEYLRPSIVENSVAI
Description: Persuasive evidence to inhibition of lipoxygenase was produced by a suitable animal lipoxygenase which had been isolated from rabbit reticulocytes, using a method by Rapoport and coworkers /S. M. Rapoport et al., Eur. J. Biochem. 96, 545 (1979)/. A final concentration of 1 mM of most of the compounds, according to this invention, produced inhibition of 90 percent or more (cf. Example 20). Significant inhibition was even recordable from a final concentration of 0.1 mM of some of the compounds, according to this invention. Substance concentrations were varied to determine the titration curves of inhibition and from these the half-inhibition concentrations (I50 -values). A half-inhibition concentration of 7 μM was established for 5-methyl-2-hydroxy-laurophenone-oxime, an oxime of high anti-asthmatic effectiveness.
Inhibition of activity of lipoxygenase from rabbit reticulocytes:
Lipoxygenase from rabbit reticulocytes was obtained in electrophoretically and immunologically pure form by means of the method described in the literature /S. M. Rapoport et al., Eur. J. Biochem. 96, 545 (1979)/. Lipoxygenase activity was determined at 25° C. by amperometric measurement of oxygen consumption by means of a Clark electrode in the following system: 0.1M potassium phosphate, pH 7.4, with 0.2-per-cent sodium cholate and 0.53 mM linoleic acid. The enzyme concentration was […] in the sample for measurement. The substances submitted for testing were dissolved in methyl glycol (fresh distillation in vacuum) and pre-incubated ten minutes with the enzyme at measurement temperature and in the absence of sodium cholate and linoleic acid. […] No remarkable inhibition occurred to control samples under these conditions. Enzyme reaction was started by addition of sodium cholate and linoleic acid. The titration curve of inhibition and, consequently, the concentrations required for inhibition by the order of 50 per cent were determined by variation of active substance concentrations. For comparison, the compounds were tested also on commercial lipoxygenase-1 from soybean.

rat's paw = assay: carrageenin-induced oedema of rat's paw; format: in vivo; details: 50 mg/kg i.p.
Source text: This method is an adequate model of asthma bronchiale forms in experimental animals with involvement of IgE-dependent and IgG-dependent allergic reactions /R. Andersson, Brit. J. Pharmacol. 77, 301 (1982)/. The conclusion was, therefore, drawn that the comounds of general Formula I, according to this invention, should, as well, have clearly pronounced antiphlogistic properties. That conclusion was positively verified in vivo by an appropriate inflammatory model in the context of an animal experiment, using carragheenin--induced oedema of rat's paw. The experimental model was handled according to a method proposed by Winter and co-workers /C. A. Winter, E. A. Risley, and G. W. Nuss, Proc. Soc. Exp. Biol. Med. 111, 544 (1962)/ (cf. Example 19).
Inhibition of carrageenin-induced oedema of rat's paw:
Testing is conducted by methods common in international practice /C.A. Winter, E. A. Risley and G. W. Nuss, Proc. Soc. Exp. Biol. Med. 111, 544 (1962)/. Ten rats received intraperitoneal injections of 50 mg/kg body weight of 5-methyl-2-hydroxy-laurophenone-oxime in parallel with 0.1 ml of 0.1-per-cent carrageenin solution (per animal). The development of paw oedema was measured in one-hour intervals, following application, and compared with manifestations in a control group.

[2] = test system: lung strip isolated from guinea pig; assay: arachidonic acid-induced contraction of lung strip isolated from guinea pig; details: Cavia porcellus; 10 μM compound; 0.1 μM to 100 μM arachidonic acid; read-out: reduction in contractile response to arachidonic acid
Source text: Action of 5-methyl-2-hydroxy-laurophenone-oxime on arachidonic acid-inducedcontraction of lung strip isolated from guinea pig:
The experimental arrangement for this test system was analogous to that described in Example 15, through lung strip isolated from guinea pig was the subject of testing. Contraction, in this test, was induced by rising concentrations of arachidonic acid (concentrated solution in ethanol, kept in N2 atmosphere) and cumulatively measured.

solubility in water = format: physicochemical; details: visible from unambiguous clouding of the sample

Compound: CCCCCCCCCCCC(=NO)c1cc(C)ccc1O [5-methyl-2-hydroxy-laurophenone-oxime]
- IC50 ([1]; limited by solubility, real I50 said to be very much lower, read-out: half-inhibition concentration (I50)): 7 µM
- inhibition at 1000 µM ([1]; ultimate concentration 1.0 mM, read-out: Inhibition (percent) of lipoxygenase from reticulocytes): 100%
- Inhibition of carrageenin-induced oedema (rat's paw; 0.5 hr, + significant, P < 0.05): 43%
- Inhibition of carrageenin-induced oedema (rat's paw; 1 hr, + significant, P < 0.05): 47%
- Inhibition of carrageenin-induced oedema (rat's paw; 2 hr, + significant, P < 0.05): 34%
- Inhibition of carrageenin-induced oedema (rat's paw; 3 hr, + significant, P < 0.05): 34%
- Inhibition of carrageenin-induced oedema (rat's paw; 4 hr, not marked significant): 31%
- Inhibition of carrageenin-induced oedema (rat's paw; 5 hr, not marked significant): 29%
- inhibition at 10 µM [2]: 70%
- solubility in water (solubility in water): limited solubility in water
